Holding throughout (test): NCI-60 cell line screen, 48 h
Test [1] relates to CAKI-1 renal.
Test [2] relates to EKVX NSCLC.
The test system of test [3] is HS 578T breast.
For test [4], the system named is KM12 colon.
For test [5], the system named is NCI-H226 lung.
Test [6] relates to NCI-H23 lung.
Test [7] deals with NCI/ADR-RES ovarian.
For test [8], the system named is RXF 393 renal.
Test [9] deals with SR leukemia.
For test [10], the system named is UACC-62 melanoma.

Several values for one entry are separate records, joined by “and”; a condition that tells them apart may be missing. Equal entries are not always repeated.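 Growth conditions: 96-well plates. Treatment: test compound, 48 hours, 5 concentrations. Analysis: linear interpolation between bracketing concentrations; unreached endpoints set to highest concentration. At the GI50, growth is halved. TGI: total growth inhibition.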 Some results are limits rather than exact numbers.

With `Cc1cc(C(=O)CSC(=S)SC(C)(C)C)ccc1Cl`, the TGI was above 100 µM in test [1]; 56.8 µM in [2]; 82.3 µM in test [3]; 53.3 µM in [4]; 42.7 µM in [5]; above 100 µM in test [6]. Moreover, the TGI in test [7] amounted to 42.1 µM; in test [8] it was 29 µM; in test [9], 46.9 µM; in test [10] it was 30.1 µM.
Regarding `CN(C)CCN1CCC(Cc2ccccc2)CC1`, the GI50 in test [1] was above 80 µM; in [2], above 80 µM; in test [3], 44.1 µM; in test [4] it was above 80 µM; in test [5], above 80 µM; in [6] it was above 80 µM. For the same compound, the GI50 is above 80 µM in [7], above 80 µM in [8], 67.3 µM in test [9] and above 80 µM in [10]. The TGI in test [1], in test [2], in test [3], in test [4], in [5] and in [6] was above 80 µM in each case. The TGI in test [7], in test [8], in test [9] and in [10] was above 80 µM in each case.
Consider `NC(=O)c1cc(I)ccc1NC(=O)/C=C/c1ccccc1`, for which the GI50 is 0.652 µM in test [1]; 0.787 µM in test [2]; 0.364 µM in test [3]; 0.41 µM in test [4]; 1.96 µM in test [5]; 1 µM in [6]. Besides, the GI50 in test [7] is 0.351 µM; in [8], 0.989 µM; in test [9], 0.419 µM; in test [10], 0.457 µM. For the same compound, the TGI in test [1] was 24.8 µM; in [2] it was above 68.8 µM; in [3], 15.4 µM; in test [4], above 37.4 µM; in test [5], 40.3 µM; in [6], above 44.9 µM. The values for the TGI in [7], in test [8] and in test [10] were 3.92 µM, 22.8 µM and above 77.6 µM, respectively.
Regarding `NC(=S)N/N=C/c1ncccc1O`, the GI50 in test [1] was 2.59 µM; in test [2], 8.58 µM; in test [4], 4.67 µM; in test [5], 4.3 µM; in test [6], 1.38 µM; in test [7], 2.21 µM. Further, the values for the GI50 in [9] and in [10] were 0.585 µM and 1.67 µM, respectively. In addition, the TGI in [1] is > 56.7 µM and 63.9 µM; in test [2] it was > 92.8 µM and 28.1 µM; in test [3], 835 µM; in test [4] it was above 1000 µM; in test [5], 18 µM and 122 µM; in test [6], 33.4 µM and 29.7 µM. Further, the TGI is 38 µM and 6.56 µM in test [7]; 7.82 µM and 42.6 µM in test [8]; 28.8 µM and > 148 µM in [9]; 11 µM and 9.55 µM in test [10].
As to `CCSc1nc(N=Cc2ccccc2O)c2cn[nH]c2n1`, the GI50 in [1] is 19.3 µM; in [2], 47.2 µM; in test [3], 20.9 µM; in test [4], 13.2 µM; in test [5], 17.9 µM; in test [6], 15.2 µM. The GI50 is 20.3 µM in test [7], 12.9 µM in [8], 7.31 µM in test [9] and 16.4 µM in [10]. The TGI in test [1] was 82.4 µM; in [2], above 100 µM; in test [3] it was 69.2 µM; in test [4] it was 37 µM; in test [5], 73.9 µM; in [6] it was 34.9 µM. In addition, the TGI is 63.6 µM in test [7], 44.6 µM in [8], above 100 µM in [9] and 54.7 µM in test [10].
For the compound `COC(=O)C1=CN(CC2=CC(=O)C(C)=CC2=O)C=C(C(=O)OC)C1c1ccccc1OC`, the GI50 in test [1] is 16.7 µM; in test [2] it was 28.8 µM; in test [3], 25.9 µM; in test [4], 23.6 µM; in test [5], 16.4 µM; in test [6] it was 19.5 µM. Moreover, the GI50 was 17.4 µM in [7], 16.2 µM in [8], 4.01 µM in test [9] and 13.3 µM in test [10]. In addition, the TGI in test [1] was 37.9 µM; in test [2], above 100 µM; in [3], 77.8 µM; in test [4], above 72.3 µM; in [5], 41.5 µM; in test [6], 45.6 µM. The TGI in [7] worked out at 34.8 µM; in test [8], 32.3 µM; in [9] it was 19.6 µM; in test [10], 27.5 µM.
For `CC(C)=CCC1=C(O)c2ccccc2C(=O)C1=O`, the TGI is above 100 µM in test [1]; above 100 µM in [2]; above 100 µM in test [3]; above 100 µM in test [4]; above 100 µM in test [5]; > 100 µM and 69.7 µM in test [6]. The TGI in test [7], in [8], in test [9] and in test [10] was above 100 µM each time. Further, the GI50 in test [2] is 57.7 µM; in [6], > 100 µM and 23.5 µM and 33.6 µM; in test [7], 12.4 µM; in test [8], above 100 µM; in test [10], > 100 µM and 13.4 µM.
Take `O=[N+]([O-])c1ccccc1N=Nc1c(O)[nH]c2c(Cl)cc(Cl)cc12`: the TGI is above 91.8 µM in [1]; 99.5 µM in test [2]; 53 µM in test [3]; above 100 µM in test [4]; above 100 µM in [5]; above 100 µM in test [6]. Besides, the TGI was above 100 µM in test [7], above 59.8 µM in test [8], 22.6 µM in test [9] and above 100 µM in test [10].
Turning to `CCn1cc(-c2ccnc3[nH]c(-c4cccc(CN(C)C)c4)cc23)c(-c2ccc(NC(=O)N(C)C)cc2)n1`, the GI50 in [1] is 3.36 µM and 1.17 µM; in test [2] it was 3.87 µM; in test [3], 1.52 µM and 1.2 µM; in [4] it was 1.06 µM and 1.62 µM; in [5], 0.25 µM and 0.451 µM; in test [6], 2.1 µM and 2.45 µM. Besides, the GI50 was 23.4 µM and > 10 µM in test [7]; 0.356 µM and 1.18 µM in [8]; 0.122 µM and 0.031 µM in [9]; 2.49 µM and 5.74 µM in test [10]. The TGI in test [1] was 18.9 µM and > 10 µM; in test [2], above 10 µM; in [3] it was 9.99 µM and 6.9 µM; in test [4], 13.5 µM and > 10 µM; in test [5] it was 16.2 µM and > 10 µM; in test [6] it was 17.2 µM and > 10 µM. The TGI in test [7] was above 100 µM; in [8], 5.54 µM and > 10 µM; in test [9], 6.58 µM and 3.28 µM; in test [10], 22.5 µM and > 10 µM.
For the compound `COc1ccc(CNc2c3ccccc3nc3ccccc23)cc1F`, the GI50 in [1] was 2.26 µM; in test [2], 3.59 µM; in test [3], 3.06 µM; in test [4] it was 3.93 µM; in [5] it was 2.85 µM; in test [6], 2.74 µM. Moreover, the GI50 is 2.58 µM in [7], 1.8 µM in test [8], 2.49 µM in [9] and 2.97 µM in test [10]. Also, the TGI in test [1] worked out at 8.35 µM; in test [2], 14.5 µM; in [3], 11.5 µM; in test [4] it was 15.1 µM; in test [5], 10.4 µM; in test [6], 12.9 µM. The TGI in [7] came to 10.3 µM; in [8] it was 4.82 µM; in [9] it was 9.37 µM; in [10], 12.9 µM.
Regarding `CCCCCCn1c(-c2ccc(C(=O)O/N=C(\N)c3ccc4c(c3)OCO4)cc2)nc(-c2ccccc2)c1-c1ccccc1`, the GI50 in test [1] was 1.39 µM; in test [2], 1.76 µM; in [3], 1.64 µM; in [4] it was 3.9 µM; in test [5], 3.47 µM; in test [6], 1.48 µM. In addition, the GI50 is 1.68 µM in test [7], 1.77 µM in [8], 0.28 µM in [9] and 2.87 µM in [10]. For the same compound, the TGI in test [1] was 2.86 µM; in test [2], 3.96 µM; in test [3] it was 3.95 µM; in test [4] it was above 100 µM; in [5], 15.9 µM; in test [6] it was 3.05 µM. Also, the TGI in test [7] is 3.65 µM; in test [8] it was 3.88 µM; in test [9], 1.43 µM; in test [10], 10.5 µM.
Regarding `Nc1nc(Cl)nc2c1ncn2C1CC(O)C(CO)O1` (centres undefined), the TGI is 17.3 µM in test [1]; 34.5 µM in [2]; above 100 µM in test [3]; above 100 µM in test [4]; 62.5 µM in test [5]; 4.78 µM in test [6]. The TGI was above 100 µM in [7], above 100 µM in test [8], above 100 µM in test [9] and 6.15 µM in test [10]. Also, the GI50 in [3] was above 100 µM; in test [9], 5.66 µM.
As to `O=c1cccc(C#CC#C[C@@H]2O[C@H]2CO)o1`, the GI50 in [1] is 1.1 µM; in test [2], 1.79 µM; in test [3] it was 5.18 µM; in test [4], 2.06 µM; in [5], 0.627 µM; in test [6], 0.23 µM. The GI50 in test [7] was 1.24 µM; in test [8], 1.77 µM; in test [9], 0.621 µM; in test [10], 0.477 µM. Besides, the TGI was 2.71 µM in [1]; 3.43 µM in test [2]; 24.5 µM in test [3]; 7.47 µM in test [4]; 1.4 µM in test [5]; 0.45 µM in test [6]. Besides, the TGI in test [7] was 4.53 µM; in test [8] it was 3.98 µM; in [9], above 100 µM; in test [10] it was 1.1 µM.
As for `CCOC(=O)c1c(C)c2c(n1Cc1ccccc1)CSCC2=O`, the GI50 was 11 µM in test [1]; 16.3 µM in test [2]; 10.8 µM in test [3]; 15 µM in [4]; 20.2 µM in test [5]; 17.2 µM in test [6]. The GI50 in [7] was 16.7 µM; in [8], 16.2 µM; in [9] it was 7.06 µM; in test [10], 10.3 µM. Further, the TGI in test [1] is 52.2 µM; in [2], above 100 µM; in test [3], 53.3 µM; in [4], 37.9 µM; in test [5] it was 89.1 µM; in test [6] it was 63.8 µM. In addition, the TGI in test [7] was 51.4 µM; in test [8], 70.6 µM; in test [9], above 100 µM; in test [10] it was 29.9 µM.
Consider `C=CC12CCN(CC1)C(C(O)c1ccnc3ccc(OC)cc13)C2` (centres undefined), for which the GI50 in test [1], in test [2], in test [3], in test [4], in test [5] and in test [6] was above 100 µM throughout. Besides, the GI50 in [7] was above 100 µM; in [8], 80 µM; in test [9] it was above 100 µM; in test [10] it was above 100 µM. For the same compound, the TGI in test [1], in test [2], in test [3], in test [4], in test [5] and in test [6] was above 100 µM each time. Also, the TGI in test [7], in test [8], in [9] and in [10] was above 100 µM throughout.
For the compound `O=C(O)c1ccc(CNCc2ccccc2)cc1`, the TGI in test [1], in test [2], in test [3], in test [4], in [5] and in test [6] was above 100 µM throughout. Also, the TGI in test [7], in test [8], in test [9] and in [10] was above 100 µM in each case.
For the compound `COc1c(C)c(OCC=C(C)C)cc(CO)c1CO`, the TGI in test [1], in [2], in [3], in [4], in test [5] and in test [6] was above 100 µM throughout. Besides, the TGI in test [7] was above 100 µM; in test [8], 78.2 µM; in test [9], above 100 µM; in test [10] it was above 100 µM.

The values are drawn from PubChem BioAssay (NCI).
